From patent US10815230B2, “Casein kinase 1 delta inhibitor” (ELECTROPHORETICS LIMITED, priority 2015, dated 2020)

Columns and labels:
Assay in all cases: KINOMEscan binding assay
Settings in all cases: read-out: % Ctrl @ 10000 nM
PKMYT1 = PKMYT1 (Homo sapiens, UniProt Q99640)
HIPK3 = HIPK3 (Homo sapiens, UniProt Q9H422)
CAMK1D = CAMK1D (Homo sapiens, UniProt Q8IU85)
MET = MET (Homo sapiens, UniProt P08581)
NEK3 = NEK3 (Homo sapiens, UniProt P51956)
MEK5 = MEK5 (Homo sapiens, UniProt Q13163)
IKK-beta = IKK-beta (Homo sapiens, UniProt O14920)
[1] = target: ABL1 (H396P) phosphorylated (Homo sapiens, UniProt P00519, H396P)
SIK2 = SIK2 (Homo sapiens, UniProt Q9H0K1)
HIPK1 = HIPK1 (Homo sapiens, UniProt Q86Z02)
BRK = BRK (Homo sapiens, UniProt Q13882)
DYRK2 = DYRK2 (Homo sapiens, UniProt Q92630)
EIF2AK1 = EIF2AK1 (Homo sapiens, UniProt Q9BQI3)
MRCKA = MRCKA (Homo sapiens, UniProt Q5VT25)
ABL1 phosphorylated = ABL1 phosphorylated (Homo sapiens, UniProt P00519)
CAMKK2 = CAMKK2 (Homo sapiens, UniProt Q96RR4)
[2] = target: EGFR (L747-S752del, P753S) (Homo sapiens, UniProt P00533, DEL747-752/P753S)
AURKB = AURKB (Homo sapiens, UniProt Q96GD4)
PRKD2 = PRKD2 (Homo sapiens, UniProt Q9BZL6)
AKT2 = AKT2 (Homo sapiens, UniProt P31751)
IGF1R = IGF1R (Homo sapiens, UniProt P08069)
PIP5K2B = PIP5K2B (Homo sapiens, UniProt P78356)
ACVR1B = ACVR1B (Homo sapiens, UniProt P36896)
PCTK1 = PCTK1 (Homo sapiens, UniProt Q00536)
NDR1 = NDR1 (Homo sapiens, UniProt Q15208)
[3] = target: EGFR (L747-T751del, Sins) (Homo sapiens, UniProt P00533, DEL747-750/T751S)
Sequence of EGFR (L747-T751del, Sins) (P00533 with tags, fused parts or gaps DEL747-750/T751S limits assumed): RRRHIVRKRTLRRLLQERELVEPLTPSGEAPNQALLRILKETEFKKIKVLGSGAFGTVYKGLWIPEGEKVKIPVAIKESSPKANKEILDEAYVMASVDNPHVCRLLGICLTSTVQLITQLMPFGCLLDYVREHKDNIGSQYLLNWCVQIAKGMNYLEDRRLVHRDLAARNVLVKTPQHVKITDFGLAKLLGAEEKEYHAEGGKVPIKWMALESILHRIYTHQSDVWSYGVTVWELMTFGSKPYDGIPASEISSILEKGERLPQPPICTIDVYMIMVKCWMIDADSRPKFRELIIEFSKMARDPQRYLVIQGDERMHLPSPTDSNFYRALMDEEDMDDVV

AKT1 = AKT1 (Homo sapiens, UniProt P31749)
TAOK2 = TAOK2 (Homo sapiens, UniProt Q9UL54)
Sequence of TAOK2 (Q9UL54 whole entry): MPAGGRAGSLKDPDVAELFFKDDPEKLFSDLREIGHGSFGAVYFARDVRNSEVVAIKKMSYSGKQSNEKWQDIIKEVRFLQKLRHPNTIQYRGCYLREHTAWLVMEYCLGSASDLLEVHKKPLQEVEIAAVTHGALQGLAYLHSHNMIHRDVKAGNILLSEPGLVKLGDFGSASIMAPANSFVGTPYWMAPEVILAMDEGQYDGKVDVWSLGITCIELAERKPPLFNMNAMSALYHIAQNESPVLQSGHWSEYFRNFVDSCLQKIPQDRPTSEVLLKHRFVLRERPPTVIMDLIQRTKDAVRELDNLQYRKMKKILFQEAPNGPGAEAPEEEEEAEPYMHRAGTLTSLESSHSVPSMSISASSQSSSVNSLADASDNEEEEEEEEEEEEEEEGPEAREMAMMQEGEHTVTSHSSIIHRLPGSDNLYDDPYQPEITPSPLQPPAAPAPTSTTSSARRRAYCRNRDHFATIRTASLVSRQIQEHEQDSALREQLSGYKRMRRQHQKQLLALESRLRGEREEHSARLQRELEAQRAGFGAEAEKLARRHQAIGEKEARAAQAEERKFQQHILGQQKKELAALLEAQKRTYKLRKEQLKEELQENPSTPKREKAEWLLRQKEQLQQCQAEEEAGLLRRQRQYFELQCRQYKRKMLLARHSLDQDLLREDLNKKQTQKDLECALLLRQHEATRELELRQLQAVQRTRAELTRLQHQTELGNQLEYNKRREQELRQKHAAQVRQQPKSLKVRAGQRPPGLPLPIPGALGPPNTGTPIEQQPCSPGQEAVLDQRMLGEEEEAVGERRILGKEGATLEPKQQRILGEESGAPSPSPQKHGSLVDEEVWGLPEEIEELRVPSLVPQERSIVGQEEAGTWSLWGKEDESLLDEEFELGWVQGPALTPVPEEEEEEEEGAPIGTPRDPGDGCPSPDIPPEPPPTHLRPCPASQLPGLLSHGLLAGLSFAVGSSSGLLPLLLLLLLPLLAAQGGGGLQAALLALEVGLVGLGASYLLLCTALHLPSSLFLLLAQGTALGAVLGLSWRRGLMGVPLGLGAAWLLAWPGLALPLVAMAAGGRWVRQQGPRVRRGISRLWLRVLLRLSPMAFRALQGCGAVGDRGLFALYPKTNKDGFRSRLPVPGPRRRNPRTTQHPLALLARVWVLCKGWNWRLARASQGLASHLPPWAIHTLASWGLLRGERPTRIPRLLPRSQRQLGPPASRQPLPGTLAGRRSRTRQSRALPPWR

PAK6 = PAK6 (Homo sapiens, UniProt Q9NQU5)
Sequence of PAK6 (Q9NQU5 whole entry): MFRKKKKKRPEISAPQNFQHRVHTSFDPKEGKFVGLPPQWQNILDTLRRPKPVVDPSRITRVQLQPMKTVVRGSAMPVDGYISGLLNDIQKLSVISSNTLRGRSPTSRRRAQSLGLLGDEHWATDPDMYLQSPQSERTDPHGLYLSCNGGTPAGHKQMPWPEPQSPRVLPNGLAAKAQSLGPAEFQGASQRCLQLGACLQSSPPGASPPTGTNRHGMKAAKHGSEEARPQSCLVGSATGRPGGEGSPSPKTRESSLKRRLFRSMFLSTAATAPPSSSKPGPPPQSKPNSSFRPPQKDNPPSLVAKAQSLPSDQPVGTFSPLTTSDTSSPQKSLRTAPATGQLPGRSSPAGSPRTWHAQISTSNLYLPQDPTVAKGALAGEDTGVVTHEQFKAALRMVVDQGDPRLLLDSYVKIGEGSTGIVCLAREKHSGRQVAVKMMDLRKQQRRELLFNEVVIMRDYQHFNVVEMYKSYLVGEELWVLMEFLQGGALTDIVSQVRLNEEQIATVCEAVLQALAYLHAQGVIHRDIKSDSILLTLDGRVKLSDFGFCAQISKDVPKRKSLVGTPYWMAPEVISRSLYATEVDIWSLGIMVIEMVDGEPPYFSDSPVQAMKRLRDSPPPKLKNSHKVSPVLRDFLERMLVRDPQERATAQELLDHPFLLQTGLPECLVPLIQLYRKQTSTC

WNK3 = target: T1, WNK3 (Homo sapiens, UniProt Q9BYP7)
T1 construct: purchased DiscoveRx (KINOMEscan, LeadHunter Discovery services)

CDK4-cyclinD3 = CDK4-cyclinD3 (Homo sapiens, UniProt P11802)
PRKD1 = PRKD1 (Homo sapiens, UniProt Q15139)
FGFR2 = FGFR2 (Homo sapiens, UniProt P21802)
Sequence of FGFR2 (P21802 22-821): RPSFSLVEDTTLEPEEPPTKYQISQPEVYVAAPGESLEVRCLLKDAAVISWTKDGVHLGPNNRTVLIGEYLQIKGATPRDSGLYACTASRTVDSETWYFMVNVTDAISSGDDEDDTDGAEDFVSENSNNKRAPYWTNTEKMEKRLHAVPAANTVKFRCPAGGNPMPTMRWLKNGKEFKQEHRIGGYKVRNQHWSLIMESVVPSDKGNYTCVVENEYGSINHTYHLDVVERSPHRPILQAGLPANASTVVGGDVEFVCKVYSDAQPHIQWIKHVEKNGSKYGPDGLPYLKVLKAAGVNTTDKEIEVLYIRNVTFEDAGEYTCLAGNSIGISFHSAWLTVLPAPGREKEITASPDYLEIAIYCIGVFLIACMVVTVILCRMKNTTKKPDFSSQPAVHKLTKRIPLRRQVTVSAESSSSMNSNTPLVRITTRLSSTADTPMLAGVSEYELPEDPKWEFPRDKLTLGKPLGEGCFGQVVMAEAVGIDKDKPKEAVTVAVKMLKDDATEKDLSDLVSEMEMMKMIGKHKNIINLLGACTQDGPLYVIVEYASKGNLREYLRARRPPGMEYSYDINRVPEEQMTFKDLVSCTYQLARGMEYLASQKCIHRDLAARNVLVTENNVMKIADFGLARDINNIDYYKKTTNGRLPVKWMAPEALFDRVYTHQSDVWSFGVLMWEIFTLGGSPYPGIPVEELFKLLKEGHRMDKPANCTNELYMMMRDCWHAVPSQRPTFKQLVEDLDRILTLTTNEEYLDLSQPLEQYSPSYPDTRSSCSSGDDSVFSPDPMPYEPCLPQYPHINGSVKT

[4] = target: RPS6KA4 Kin.Dom.1-N-terminal (Homo sapiens, UniProt O75676)
Sequence of RPS6KA4 Kin.Dom.1-N-terminal (O75676 33-301 limits assumed): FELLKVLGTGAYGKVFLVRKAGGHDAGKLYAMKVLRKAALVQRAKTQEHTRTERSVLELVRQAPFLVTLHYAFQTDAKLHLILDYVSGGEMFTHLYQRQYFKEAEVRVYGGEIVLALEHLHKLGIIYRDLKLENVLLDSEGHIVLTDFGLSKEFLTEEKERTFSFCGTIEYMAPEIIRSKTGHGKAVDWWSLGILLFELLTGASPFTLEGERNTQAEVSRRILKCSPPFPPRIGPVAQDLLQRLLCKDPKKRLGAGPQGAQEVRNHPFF

EPHA5 = EPHA5 (Homo sapiens, UniProt P54756)
MKNK1 = MKNK1 (Homo sapiens, UniProt Q9BUB5)
CDKL2 = CDKL2 (Homo sapiens, UniProt Q92772)
Sequence of CDKL2 (Q92772 whole entry): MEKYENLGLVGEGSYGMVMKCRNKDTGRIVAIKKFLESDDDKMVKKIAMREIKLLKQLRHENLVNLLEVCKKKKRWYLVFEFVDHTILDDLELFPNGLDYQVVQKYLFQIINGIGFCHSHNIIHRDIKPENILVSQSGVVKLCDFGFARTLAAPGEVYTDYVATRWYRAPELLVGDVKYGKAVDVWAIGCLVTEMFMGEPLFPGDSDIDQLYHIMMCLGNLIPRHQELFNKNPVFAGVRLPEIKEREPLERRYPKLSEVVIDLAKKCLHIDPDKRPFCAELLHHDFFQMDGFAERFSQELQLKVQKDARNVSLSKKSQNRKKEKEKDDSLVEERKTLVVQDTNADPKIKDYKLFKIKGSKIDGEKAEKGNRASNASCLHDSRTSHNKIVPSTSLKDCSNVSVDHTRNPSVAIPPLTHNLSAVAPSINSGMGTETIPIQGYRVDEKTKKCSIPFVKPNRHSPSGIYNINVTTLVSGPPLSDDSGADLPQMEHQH

NLK = NLK (Homo sapiens, UniProt Q9UBE8)
NEK11 = NEK11 (Homo sapiens, UniProt Q8NG66)
FGFR1 = FGFR1 (Homo sapiens, UniProt P11362)
DCAMKL3 = DCAMKL3 (Homo sapiens, UniProt Q9C098)
CSNK2A1 = CSNK2A1 (Homo sapiens, UniProt P68400)

Sequence of HIPK3 (Q9H422 whole entry): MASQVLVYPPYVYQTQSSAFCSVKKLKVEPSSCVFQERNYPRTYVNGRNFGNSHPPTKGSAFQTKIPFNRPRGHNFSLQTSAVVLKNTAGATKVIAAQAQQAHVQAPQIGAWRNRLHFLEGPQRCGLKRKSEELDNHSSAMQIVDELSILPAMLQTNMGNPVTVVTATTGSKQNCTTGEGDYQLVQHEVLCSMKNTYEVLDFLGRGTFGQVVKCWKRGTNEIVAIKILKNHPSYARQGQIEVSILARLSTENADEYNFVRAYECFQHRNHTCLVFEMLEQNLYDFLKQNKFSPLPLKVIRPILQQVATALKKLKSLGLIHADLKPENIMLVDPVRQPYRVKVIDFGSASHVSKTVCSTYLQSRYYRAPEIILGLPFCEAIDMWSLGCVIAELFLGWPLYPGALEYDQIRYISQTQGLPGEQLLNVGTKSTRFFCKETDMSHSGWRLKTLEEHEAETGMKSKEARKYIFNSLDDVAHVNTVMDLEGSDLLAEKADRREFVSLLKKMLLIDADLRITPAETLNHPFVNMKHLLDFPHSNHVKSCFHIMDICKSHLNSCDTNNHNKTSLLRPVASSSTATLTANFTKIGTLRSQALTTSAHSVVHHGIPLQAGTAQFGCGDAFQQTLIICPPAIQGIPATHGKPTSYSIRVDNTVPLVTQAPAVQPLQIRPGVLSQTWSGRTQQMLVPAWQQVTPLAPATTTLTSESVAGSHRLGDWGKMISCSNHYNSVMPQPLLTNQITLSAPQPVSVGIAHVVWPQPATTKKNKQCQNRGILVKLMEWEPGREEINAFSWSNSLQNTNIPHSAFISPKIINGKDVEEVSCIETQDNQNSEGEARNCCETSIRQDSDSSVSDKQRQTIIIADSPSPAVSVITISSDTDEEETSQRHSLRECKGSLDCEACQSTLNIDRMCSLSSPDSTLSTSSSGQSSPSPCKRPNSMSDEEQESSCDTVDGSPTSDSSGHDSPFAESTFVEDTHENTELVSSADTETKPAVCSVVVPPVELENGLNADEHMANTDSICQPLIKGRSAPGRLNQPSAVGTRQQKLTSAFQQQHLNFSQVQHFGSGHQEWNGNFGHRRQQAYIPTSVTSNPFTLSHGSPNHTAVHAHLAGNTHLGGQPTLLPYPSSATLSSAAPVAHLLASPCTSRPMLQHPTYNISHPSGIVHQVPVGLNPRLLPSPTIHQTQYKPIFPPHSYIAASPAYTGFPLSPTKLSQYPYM

How did the remaining binding at 10 µM (PKMYT1) turn out when `Nc1ncc(-c2nc3ccccc3o2)c(-c2ccncc2)n1` [Comparative Compound 324, 5-(1,3-benzoxazol-2-yl)-4-(pyridine-4-yl)pyrimidin-2-amine] was run?
The remaining binding at 10 µM was 100%.

And the remaining binding at 10 µM (HIPK3)?
The remaining binding at 10 µM was 91%.

What about the remaining binding at 10 µM (CAMK1D) of the same molecule?
The remaining binding at 10 µM was 96%.

And the remaining binding at 10 µM (MET)?
The remaining binding at 10 µM was 91%.

What about the remaining binding at 10 µM (NEK3) of the same molecule?
The remaining binding at 10 µM was 69%.

And the remaining binding at 10 µM (MEK5)?
The remaining binding at 10 µM was 66%.

And the remaining binding at 10 µM (IKK-beta)?
Its remaining binding at 10 µM is 99%.

And the remaining binding at 10 µM [1]?
The remaining binding at 10 µM was 98%.

And the remaining binding at 10 µM (SIK2)?
The remaining binding at 10 µM was 100%.

And the remaining binding at 10 µM (HIPK1)?
The remaining binding at 10 µM was 64%.

What about the remaining binding at 10 µM (BRK) of the same molecule?
Its remaining binding at 10 µM is 99%.

And the remaining binding at 10 µM (DYRK2)?
Its remaining binding at 10 µM is 82%.

What about the remaining binding at 10 µM (EIF2AK1) of the same molecule?
Its remaining binding at 10 µM is 83%.

And the remaining binding at 10 µM (MRCKA)?
The remaining binding at 10 µM was 99%.

What about the remaining binding at 10 µM (ABL1 phosphorylated) of the same molecule?
The remaining binding at 10 µM was 98%.

What about the remaining binding at 10 µM (CAMKK2) of the same molecule?
Its remaining binding at 10 µM is 97%.

What about the remaining binding at 10 µM [2] of the same molecule?
Its remaining binding at 10 µM is 57%.

And the remaining binding at 10 µM (AURKB)?
The remaining binding at 10 µM was 96%.

What about the remaining binding at 10 µM (PRKD2) of the same molecule?
Its remaining binding at 10 µM is 90%.

What about the remaining binding at 10 µM (AKT2) of the same molecule?
Its remaining binding at 10 µM is 100%.

And the remaining binding at 10 µM (IGF1R)?
The remaining binding at 10 µM was 100%.

And the remaining binding at 10 µM (PIP5K2B)?
The remaining binding at 10 µM was 100%.

And the remaining binding at 10 µM (ACVR1B)?
Its remaining binding at 10 µM is 100%.

And the remaining binding at 10 µM (PCTK1)?
Its remaining binding at 10 µM is 95%.

And the remaining binding at 10 µM (NDR1)?
Its remaining binding at 10 µM is 73%.

And the remaining binding at 10 µM [3]?
The remaining binding at 10 µM was 54%.

What about the remaining binding at 10 µM (AKT1) of the same molecule?
The remaining binding at 10 µM was 96%.

And the remaining binding at 10 µM (TAOK2)?
Its remaining binding at 10 µM is 98%.

And the remaining binding at 10 µM (PAK6)?
The remaining binding at 10 µM was 100%.

What about the remaining binding at 10 µM (WNK3) of the same molecule?
Its remaining binding at 10 µM is 89%.

And the remaining binding at 10 µM (CDK4-cyclinD3)?
The remaining binding at 10 µM was 100%.

And the remaining binding at 10 µM (PRKD1)?
The remaining binding at 10 µM was 100%.

And the remaining binding at 10 µM (FGFR2)?
The remaining binding at 10 µM was 63%.

And the remaining binding at 10 µM [4]?
Its remaining binding at 10 µM is 100%.

And the remaining binding at 10 µM (EPHA5)?
Its remaining binding at 10 µM is 100%.

What about the remaining binding at 10 µM (MKNK1) of the same molecule?
The remaining binding at 10 µM was 96%.

What about the remaining binding at 10 µM (CDKL2) of the same molecule?
Its remaining binding at 10 µM is 100%.

What about the remaining binding at 10 µM (NLK) of the same molecule?
Its remaining binding at 10 µM is 41%.

What about the remaining binding at 10 µM (NEK11) of the same molecule?
The remaining binding at 10 µM was 86%.

And the remaining binding at 10 µM (FGFR1)?
Its remaining binding at 10 µM is 98%.

What about the remaining binding at 10 µM (DCAMKL3) of the same molecule?
Its remaining binding at 10 µM is 100%.

What about the remaining binding at 10 µM (CSNK2A1) of the same molecule?
The remaining binding at 10 µM was 56%.

How did the remaining binding at 10 µM (PKMYT1) turn out when `CNc1c(C(N)=O)c2ccccn2c1C(=O)c1ccc(F)cc1` [Compound A, 2-methyl-amino-3-[(4-fluorophenyl)carbonyl]indolizine-1-carboxamide] was run?
Its remaining binding at 10 µM is 52%.

What about the remaining binding at 10 µM (HIPK3) of the same molecule?
The remaining binding at 10 µM was 79%.

And the remaining binding at 10 µM (CAMK1D)?
Its remaining binding at 10 µM is 97%.

And the remaining binding at 10 µM (MET)?
The remaining binding at 10 µM was 100%.

And the remaining binding at 10 µM (NEK3)?
The remaining binding at 10 µM was 66%.

And the remaining binding at 10 µM (MEK5)?
The remaining binding at 10 µM was 51%.

And the remaining binding at 10 µM (IKK-beta)?
The remaining binding at 10 µM was 90%.

What about the remaining binding at 10 µM [1] of the same molecule?
The remaining binding at 10 µM was 49%.

And the remaining binding at 10 µM (SIK2)?
The remaining binding at 10 µM was 59%.

What about the remaining binding at 10 µM (HIPK1) of the same molecule?
The remaining binding at 10 µM was 51%.

And the remaining binding at 10 µM (BRK)?
The remaining binding at 10 µM was 92%.

And the remaining binding at 10 µM (DYRK2)?
Its remaining binding at 10 µM is 83%.

And the remaining binding at 10 µM (EIF2AK1)?
The remaining binding at 10 µM was 86%.

And the remaining binding at 10 µM (MRCKA)?
Its remaining binding at 10 µM is 94%.

And the remaining binding at 10 µM (ABL1 phosphorylated)?
The remaining binding at 10 µM was 51%.

And the remaining binding at 10 µM (CAMKK2)?
The remaining binding at 10 µM was 82%.

What about the remaining binding at 10 µM [2] of the same molecule?
Its remaining binding at 10 µM is 11%.

What about the remaining binding at 10 µM (AURKB) of the same molecule?
The remaining binding at 10 µM was 86%.

And the remaining binding at 10 µM (PRKD2)?
Its remaining binding at 10 µM is 68%.

What about the remaining binding at 10 µM (AKT2) of the same molecule?
Its remaining binding at 10 µM is 98%.

What about the remaining binding at 10 µM (IGF1R) of the same molecule?
Its remaining binding at 10 µM is 99%.

What about the remaining binding at 10 µM (PIP5K2B) of the same molecule?
Its remaining binding at 10 µM is 100%.

And the remaining binding at 10 µM (ACVR1B)?
Its remaining binding at 10 µM is 100%.

And the remaining binding at 10 µM (PCTK1)?
The remaining binding at 10 µM was 89%.

What about the remaining binding at 10 µM (NDR1) of the same molecule?
Its remaining binding at 10 µM is 74%.

What about the remaining binding at 10 µM [3] of the same molecule?
Its remaining binding at 10 µM is 12%.

And the remaining binding at 10 µM (AKT1)?
Its remaining binding at 10 µM is 91%.

What about the remaining binding at 10 µM (TAOK2) of the same molecule?
Its remaining binding at 10 µM is 80%.

What about the remaining binding at 10 µM (PAK6) of the same molecule?
Its remaining binding at 10 µM is 86%.

And the remaining binding at 10 µM (WNK3)?
The remaining binding at 10 µM was 75%.

And the remaining binding at 10 µM (CDK4-cyclinD3)?
The remaining binding at 10 µM was 96%.

And the remaining binding at 10 µM (PRKD1)?
The remaining binding at 10 µM was 100%.

What about the remaining binding at 10 µM (FGFR2) of the same molecule?
The remaining binding at 10 µM was 53%.

What about the remaining binding at 10 µM [4] of the same molecule?
The remaining binding at 10 µM was 100%.

What about the remaining binding at 10 µM (EPHA5) of the same molecule?
The remaining binding at 10 µM was 70%.

And the remaining binding at 10 µM (MKNK1)?
Its remaining binding at 10 µM is 100%.

And the remaining binding at 10 µM (CDKL2)?
The remaining binding at 10 µM was 85%.

What about the remaining binding at 10 µM (NLK) of the same molecule?
Its remaining binding at 10 µM is 35%.

What about the remaining binding at 10 µM (NEK11) of the same molecule?
Its remaining binding at 10 µM is 88%.

And the remaining binding at 10 µM (FGFR1)?
Its remaining binding at 10 µM is 72%.

What about the remaining binding at 10 µM (DCAMKL3) of the same molecule?
The remaining binding at 10 µM was 100%.

What about the remaining binding at 10 µM (CSNK2A1) of the same molecule?
The remaining binding at 10 µM was 53%.
